# pEC50, pIC50: −log10 of the molar value.
# How the values were obtained:
# healthy volunteers = experiment: Phase I healthy volunteer studies (prednisone challenge); type: in vivo, human; conditions: for NLR: healthy volunteers with normal cortisol levels
# Description: (§1) GR is a broad regulator of immunosuppressive transcriptional programs, so we first assessed the transcriptional effects of prednisone in and/or relacorilant in whole blood. […] These three genes are known to play a role in suppressing the cytotoxic T-cell response.
# GR [1] = biological target: T1, GR (Homo sapiens, UniProt P04150); experiment: GR binding; conditions: read-out: Half-maximal GR binding
# T1 sequence (P04150 1-777): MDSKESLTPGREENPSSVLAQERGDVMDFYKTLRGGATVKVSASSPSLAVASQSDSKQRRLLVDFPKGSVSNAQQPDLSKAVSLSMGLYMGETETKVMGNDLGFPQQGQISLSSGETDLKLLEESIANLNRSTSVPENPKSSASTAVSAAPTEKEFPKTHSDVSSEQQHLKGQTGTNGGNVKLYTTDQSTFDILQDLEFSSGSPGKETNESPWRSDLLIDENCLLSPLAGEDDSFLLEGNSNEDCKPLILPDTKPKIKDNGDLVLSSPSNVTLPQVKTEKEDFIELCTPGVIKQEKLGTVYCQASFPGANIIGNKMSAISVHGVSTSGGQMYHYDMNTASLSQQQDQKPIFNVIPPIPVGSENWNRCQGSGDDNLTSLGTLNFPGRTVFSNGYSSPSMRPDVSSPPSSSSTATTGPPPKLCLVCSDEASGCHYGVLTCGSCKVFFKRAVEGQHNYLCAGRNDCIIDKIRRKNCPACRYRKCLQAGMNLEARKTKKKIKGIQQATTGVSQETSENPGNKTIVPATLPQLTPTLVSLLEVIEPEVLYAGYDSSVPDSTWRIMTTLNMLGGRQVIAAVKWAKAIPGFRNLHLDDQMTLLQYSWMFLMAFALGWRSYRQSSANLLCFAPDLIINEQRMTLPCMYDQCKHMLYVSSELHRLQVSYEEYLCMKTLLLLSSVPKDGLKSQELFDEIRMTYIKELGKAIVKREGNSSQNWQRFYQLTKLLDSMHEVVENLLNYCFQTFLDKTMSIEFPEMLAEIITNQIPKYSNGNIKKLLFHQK
# [2] = biological target: T2, progesterone receptor (PR) (Homo sapiens, UniProt P06401); experiment: PR binding; conditions: binding not observed at these concentrations
# T2 sequence (P06401 1-933): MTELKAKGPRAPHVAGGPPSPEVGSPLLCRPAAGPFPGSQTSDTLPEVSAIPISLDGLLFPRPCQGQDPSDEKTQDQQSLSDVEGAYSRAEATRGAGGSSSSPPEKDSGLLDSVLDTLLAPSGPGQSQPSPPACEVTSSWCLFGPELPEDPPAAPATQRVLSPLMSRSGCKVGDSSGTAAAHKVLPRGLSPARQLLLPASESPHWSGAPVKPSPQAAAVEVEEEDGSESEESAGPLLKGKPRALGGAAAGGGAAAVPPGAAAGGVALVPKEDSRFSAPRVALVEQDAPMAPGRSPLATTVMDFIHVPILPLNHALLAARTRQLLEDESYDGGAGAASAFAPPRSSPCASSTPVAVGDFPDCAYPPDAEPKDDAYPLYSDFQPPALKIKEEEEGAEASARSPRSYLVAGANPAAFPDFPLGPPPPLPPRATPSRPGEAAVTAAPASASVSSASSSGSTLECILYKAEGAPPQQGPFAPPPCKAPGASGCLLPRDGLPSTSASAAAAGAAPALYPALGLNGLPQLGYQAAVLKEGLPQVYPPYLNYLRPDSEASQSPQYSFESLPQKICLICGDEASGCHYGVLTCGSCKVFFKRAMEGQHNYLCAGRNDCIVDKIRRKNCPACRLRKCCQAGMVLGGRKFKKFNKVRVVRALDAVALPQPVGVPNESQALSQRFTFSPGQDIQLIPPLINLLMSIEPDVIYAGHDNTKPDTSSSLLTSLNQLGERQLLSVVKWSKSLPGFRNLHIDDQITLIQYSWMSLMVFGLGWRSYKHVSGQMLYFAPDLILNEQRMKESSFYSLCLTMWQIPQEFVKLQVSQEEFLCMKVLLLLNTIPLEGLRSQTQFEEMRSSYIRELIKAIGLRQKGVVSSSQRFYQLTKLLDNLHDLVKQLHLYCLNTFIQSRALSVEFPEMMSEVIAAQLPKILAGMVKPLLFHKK
# human stimulated PBMCs = experiment: Restoration of TNF-α production in stimulated PBMCs suppressed by GR agonists; type: cell-based; conditions: PBMC, read-out: restoration of TNF-α production, half maximal effect
# [3] = test system: rat model of corticosterone-induced insulin resistance; experiment: Rat model of corticosterone-induced insulin resistance; type: in vivo; conditions: oral, doses giving systemic exposure similar to phase I studies
# GR [4] = biological target: T1, GR; experiment: GR inverse agonism
# [5] = test system: patients with Cushing’s disease; experiment: Phase II study in patients with Cushing’s disease; type: in vivo, human
# stimulated human PBMC’s = experiment: Activation of stimulated human PBMCs (PHA or αCD3+IL-12) +/- cortisol or cortisol + relacorilant; type: cell-based; conditions: for cytokines and chemokines (including IFNγ, IL-1β, IL-1α, IL-6): PHA or αCD3 stimulation; for cytokines and chemokines (including IFNγ, IL-1β, IL-1α, IL-6) / Expression of CD137 (aka 41-BB) on CD8+ cells: physiological cortisol; for CD3+ cell surface receptors: PHA stimulation; for inflammatory cytokines such as TNF-α: induced by stimulation; for inflammatory cytokines such as TNF-α / Expression of CD137 (aka 41-BB) on CD8+ cells: relacorilant in presence of cortisol; for CD8+ T-cell activation / pro-inflammatory cytokine secretion (TNFα, IFNγ): αCD3+IL-12; for CD8+ T-cell activation: P<0.001; for pro-inflammatory cytokine secretion (TNFα, IFNγ): TNFα P=0.006, IFNγ P<0.05
# Protocol: To understand the molecular consequences of GC activity on T-cell activation, the effects of cortisol and relacorilant were assessed on stimulated human PBMC’s. […] Expression of CD137 (aka 41-BB) on CD8+ cells was reduced by cortisol and rescued by relacorilant. […] Expression of CD137 (aka 41-BB) within CD8+ cells was reduced by cortisol and rescued by relacorilant. […] Thus, as shown also in FIG. 4, inflammatory cytokines such as TNF-α were induced by stimulation, suppressed by cortisol, and rescued by relacorilant. […] FIG. 6A and FIG. 6B show, following stimulation by phytohemagglutinin (PHA) (FIG. 6A) or αCD3 (FIG. 6B), suppression of cytokines and chemokines by cortisol and the restoration of cytokine/chemokine levels by relacorilant. (Supernatant IL-12 measurements were excluded from the analysis shown in FIG. 6B since the stimulation included recombinant IL-12.) Physiological levels of cortisol suppressed cytokines and chemokines, and this suppression was reversed by relacorilant.
# (§2) Methods: Immune cell abundance and GR expression were assessed by IHC and calculated based on The Cancer Genome Atlas (TCGA) data. Human PBMCs were stimulated with αCD3+IL-12 +/- cortisol or cortisol + relacorilant. EG7 tumor-bearing mice were treated with αPD1 (RMP1-14) ip (intraperitoneally) Q5D (every fifth day) +/- daily relacorilant (QD). Whole blood mRNA was measured via Nanostring, hematology was performed using standard complete blood count assays, and cytokines were assessed by immunoassays in study NCT02762981.
# EG7 tumor cells [6] = experiment: EG7 tumor model in WT mice, αPD1 (RMP1-14) +/- relacorilant; type: in vivo, mouse; conditions: for TNFα levels in terminal sera: sera collected between days 11 and 21
# Protocol: The combination of PD1 antagonist antibody (RMP1-14) and relacorilant was assessed in the EG7 tumor model. Most reports have assessed αPD1 effects on EG7 cells in WT mice without added cortisol, so this more established model was used.
# as §2
# [7] = test system: patients with advanced solid tumors; experiment: Phase I study of relacorilant+nab-paclitaxel in solid tumor patients (NCT02762981); conditions: human, in vivo
# Protocol: as §1, §2
# [8] = test system: E.G7-OVA mouse lymphoma cells; experiment: Short term (7-day) EG7 pharmacodynamic study in B6 CD45.1 mice; type: in vivo
# Protocol: A short term (7-day) EG7 pharmacodynamic study was conducted in female B6 CD45.1 mice to assess the effects of relacorilant+ αPD1 on T-cell proliferation and activation. Spleen and portions of tumor from B6 CD45.1 female mice subcutaneously inoculated with E.G7-OVA mouse lymphoma cells and treated with CORT125134 (30 mg/kg, administered p.o. once daily for 7 days) and RMP1-14 (10 mg/kg, administered i.p. on every fifth day for a total of two doses), alone and in combination, were analyzed via flow cytometry. Unlike the previous study, cell and cytokine analyses were synchronized and occurred before differences in tumor volume were detected (FIG. 14). Thus, in this study, changes in tumor volumes cannot influence the cytokine or T-cell measurements. There were no adverse effects of the treatments on clinical signs or body weight changes.
# Antigen specific T-cells are key mediators of the anti-tumor immune response. The EG7 model expresses the model antigen ovalbumin. Antigen specific T-cells can be quantified by measuring T-cells that recognize ovalbumin. Cells which bind T-cells markers (such as anti-CD3 and anti-CD8) and bind labeled ovalbumin tetramers are thus considered antigen specific T-cells. Antigen specific T-cells were increased by the combination of relacorilant + αPD1 in the spleen and tumor (FIG. 15). […]
# EG7 tumor cells [9] = experiment: EG7 syngeneic model in OT-1/Rag-/- mice with cortisol in drinking water
# Protocol: The suppressive effects of cortisol on CD8+ cytotoxic T-cells, and the ability of relacorilant to promote T-cell activation, were assessed in the EG7 syngeneic mouse model. EG7 tumor cells express ovalbumin, and the model was studied both in WT or OT-1/Rag^-/- mice. The OT-1/Rag^-/- mice only have T-cells expressing a transgenic ovalbumin-specific TCR. […] The combination of PD1 antagonist antibody (RMP1-14) and relacorilant was assessed in the EG7 tumor model.
compound,measurement,setting,value
"C[C@]12C=CC(=O)C=C1CC[C@@H]1[C@@H]2C(=O)C[C@@]2(C)[C@H]1CC[C@]2(O)C(=O)CO [prednisone, reference compound]",transcriptional effect in whole blood,"healthy volunteers; 25 mg dose, 4 hours post dose",large transcriptional effect
same,NLR,healthy volunteers,rapid an acute increase
"Cn1cc(S(=O)(=O)N2CCC3=Cc4c(cnn4-c4ccc(F)cc4)C[C@]3(C(=O)c3cc(C(F)(F)F)ccn3)C2)cn1 [relacorilant, (R)-(1-(4-fluorophenyl)-6-((1-methyl-1H-pyrazol-4-yl)sulfonyl)-4,4a,5,6,7,8-hexahydro-1H-pyrazolo[3,4-g]isoquinolin-4a-yl)(4-(trifluoromethyl)pyridin-2-yl)methanone]",pIC50,GR [1],9.82
same,pIC50,[2],< 6.00
same,pEC50,human stimulated PBMCs,8.05
same,glucose and insulin,[3],normalized glucose and insulin
same,tolerability,healthy volunteers; healthy volunteers,demonstrated tolerability
same,NLR,healthy volunteers,does not affect NLR
same,GR agonist induction of FKBP5 mRNA in whole blood,healthy volunteers; prednisone challenge,reversed
same,GR agonist suppression of eosinophil abundance in whole blood,healthy volunteers; prednisone challenge,reversed
same,prednisone-induced increase in the NLR,healthy volunteers; relacorilant co-dosed with prednisone,reversed
same,GR inverse agonism,GR [4],not observed
same,effects of excess cortisol on hypertension and insulin resistance,[5],demonstrated the ability to reverse
same,"cytokines and chemokines (including IFNγ, IL-1β, IL-1α, IL-6)",stimulated human PBMC’s,reversed
same,CD3+ cell surface receptors,stimulated human PBMC’s,restoration
same,inflammatory cytokines such as TNF-α,stimulated human PBMC’s,rescued
same,Expression of CD137 (aka 41-BB) on CD8+ cells,stimulated human PBMC’s,rescued
same,CD8+ T-cell activation,stimulated human PBMC’s,restored
same,"pro-inflammatory cytokine secretion (TNFα, IFNγ)",stimulated human PBMC’s,restored
same,circulating IL-10,EG7 tumor cells [6]; P<0.002,decreased
same,αPD1 efficacy,EG7 tumor cells [6]; P=0.007,increased
same,effect on tumor growth,EG7 tumor cells [6]; WT mice without added cortisol,no significant effect
same,TNFα levels in terminal sera,EG7 tumor cells [6],increased
same,NLR in cancer patients with elevated baseline NLR,[7],lowers
same,PD1 expression in splenic CD8 T-cells,[8]; 7 days,sufficient to induce
same,PD-1+ as % CD8+ cells in spleens,[8]; vs Vehicle Control,significant (p≤0.05) increase
cortisol,phenotypic effects of stimulation,"stimulated human PBMC’s; 400 nM cortisol, PHA or αCD3+IL-12",potently suppressed nearly every phenotypic effect of stimulation
same,"cytokines and chemokines (including IFNγ, IL-1β, IL-1α, IL-6)",stimulated human PBMC’s,suppressed
same,CD3+ cell surface receptors,stimulated human PBMC’s,suppression
same,inflammatory cytokines such as TNF-α,stimulated human PBMC’s,suppressed
same,Expression of CD137 (aka 41-BB) on CD8+ cells,stimulated human PBMC’s,reduced
same,CD8+ T-cell activation,stimulated human PBMC’s,inhibited
same,"pro-inflammatory cytokine secretion (TNFα, IFNγ)",stimulated human PBMC’s,inhibited
same,mice with measurable tumors by day 10,EG7 tumor cells [9]; OT-1/Rag-/- mice,All mice
same,tumor growth,EG7 tumor cells [9]; OT-1/Rag-/- mice,rapid tumor growth
same,histologically confirmed complete remissions,EG7 tumor cells [9]; OT-1/Rag-/- mice given cortisol +/- relacorilant,none
same,Premature deaths,"EG7 tumor cells [9]; OT-1/Rag-/- mice, 0/5 in controls",2/5
same,tumor growth on excess cortisol administration,EG7 tumor cells [6]; cortisol added to relacorilant treatment,restored tumor growth
same,tumor control or growth,EG7 tumor cells [6]; cortisol in drinking water of wild type (WT) mice,no effect on tumor control or growth
same,TNFα levels in terminal sera,EG7 tumor cells [6],suppressed
